Target: T1, recombinant human MAO-B (Homo sapiens, UniProt P27338)
T1 sequence (P27338 1-520): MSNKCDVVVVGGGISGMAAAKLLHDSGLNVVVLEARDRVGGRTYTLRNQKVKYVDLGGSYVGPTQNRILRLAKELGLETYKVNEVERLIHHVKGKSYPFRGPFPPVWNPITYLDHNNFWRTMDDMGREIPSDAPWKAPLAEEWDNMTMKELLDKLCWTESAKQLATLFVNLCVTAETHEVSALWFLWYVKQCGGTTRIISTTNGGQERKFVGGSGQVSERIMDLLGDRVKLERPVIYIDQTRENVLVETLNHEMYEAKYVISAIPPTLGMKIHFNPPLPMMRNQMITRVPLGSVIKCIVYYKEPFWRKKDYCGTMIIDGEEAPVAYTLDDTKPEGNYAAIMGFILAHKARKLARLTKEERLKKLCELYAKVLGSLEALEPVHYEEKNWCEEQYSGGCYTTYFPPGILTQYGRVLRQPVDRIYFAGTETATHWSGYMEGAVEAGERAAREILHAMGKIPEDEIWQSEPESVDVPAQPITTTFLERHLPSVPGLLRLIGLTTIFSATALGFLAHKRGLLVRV
Test: Reversibility of MAO-B inhibition by dialysis
Type: biochemical
Conditions: dialysis experiment

`C[C@H](NCc1ccc(OCc2cccc(F)c2)cc1)C(N)=O` [Safinamide] was tested, and the “Reversibility of MAO-B inhibition” value was “reversible”.
